Reference: patent US8927596B2, “Antischistosomal agent” (National University Corporation Okayama University, priority 2008, dated 2015)

Assays:
[1] = test system: schistosomes (Schistosoma mansoni); assay: Number of schistosomes in vivo (Experimental Example 1); conditions: infected BALB/c mice, oral, administered on Days 14 and 15 after the infection, counted on Week 6 after the infection
Experimental: 100 μl of the antischistosomal agent of the present invention were orally administered to mice (BALB/c mice, 5-week-old) infected with schistosomes (Schistosoma mansoni) in accordance with a drug dosage regimen of FIG. 2. As a control, 100 μl of olive oil was administered. On Week 6 after the infection, the mice were sacrificed with an overdose of anesthetic, and the number of schistosomes recovered was counted under a microscope.

[2] = test system: schistosomes (Schistosoma mansoni); assay: Macroscopic findings on liver lesions in schistosome-infected mice (Experimental Example 3); assay type: in vivo; conditions: infected BALB/c mice, viscera observed macroscopically
[3] = test system: schistosomes (Schistosoma mansoni); assay: Number of schistosomes and number of eggs produced per adult female schistosome (Experimental Example 2); assay type: in vivo; conditions: infected BALB/c mice, oral, measured on Week 9
Experimental: 100 μl of the antischistosomal agent of the present invention were orally administered to mice (BALB/c mice, 5-week-old) infected with schistosomes (Schistosoma mansoni) in accordance with a drug dosage regimen of FIG. 4. As a control, 100 μl of olive oil was administered. On Week 9 after the infection, the mice were sacrificed with an overdose of anesthetic, and the number of schistosomes recovered and the number of eggs produced per adult female schistosome were measured. The number of schistosomes was measured in the same manner as in Experimental Example 1, and the number of eggs produced was also counted under a microscope.

immature schistosomes = conditions: as reported in the literature (Non Patent Literature 1); cited from earlier work
[4] = administration on each of Weeks 5 to 7 after the infection

C1CCCCCC2(CCCCC1)OOCCCOO2 [antischistosomal agent, 1,2,6,7-tetraoxaspiro[7.11]nonadecane]
number of schistosomes reduced as compared to the olive oil administration group [1]: 86%
liver lesions due to eggs of schistosomes (macroscopic) ([2]; administered on Week 5 after the infection): few liver lesions
enlargement of spleen [2]: inhibited
number of eggs produced reduced ([3]; administration on Week 5 only after the infection): 87%
number of eggs produced per adult female schistosome reduced as compared to the olive oil administration group [3, 4]: 98%
number of schistosomes as compared to the olive oil administration group [3, 4]: not significantly reduced

O=C(C1CCCCC1)N1CC(=O)N2CCc3ccccc3C2C1 (stereo not shown) [praziquantel]
effect on schistosomes at the immature stage (immature schistosomes): not effective
